The values that follow come from US12577584B2, “Non-HLA matched humanized NSG mouse model with patient-derived xenograft” (The Jackson Laboratory, priority 2015, dated 2026).

Entries after “also recorded” stand apart in the source; their conditions may differ.

For experiment [1], the system named is CD45+CD8+ infiltrating T lymphocytes in PDX tumor samples. The experiment is described as follows: Immuno-staining of treated PDX tumor samples for CD45+CD8+ infiltrating T lymphocytes. The class given is in vivo, mouse. As to conditions: compared to chemotherapy alone. On the procedure:
In a similar experiment, immuno-staining was conducted on PDX tumor samples treated by chemotherapy alone, anti-PD1 agent Keytruda, and anti-CTLA4 agent ipilimumab, for the presence of CD45^+CD8^+ infiltrating T lymphocytes.

The test system of experiment [2] is non-small-cell lung cancer, melanoma, and renal-cell cancer. The following applies: 296 patients; cited from earlier work.
Experiment [3] relates to breast cancer cell line MDA-MB-231. Put plainly: Tumor growth of PD-L1+ MDA-MB-231 breast cancer model in non-HLA matched Hu-CD34 NSG mice. The class given is in vivo, mouse. The following applies: for tumor growth of MDA-MB-231 tumors: growth curves over 21 days, cisplatin i.v. about 2 mg/kg Q7dx2. On the procedure:
First, to determine if the checkpoint inhibitor pembrolizumab (Keytruda) is efficacious in the subject non-HLA matched PDX humanized NSG model, a PDX huNSG model was established according to the methods of the invention. […] This cell line expresses very high levels of PD-L1 on the tumor cell surface that can bind to PD-1 on T-cells and induce anergy—about 94.3% of the MDA-MB-231 cells expressed PD-L1. The tumor-engrafted humanized NSG mice were then treated either with vehicle, Cisplatin, or Prembrolizumab (Keytruda).
Tumor growth curves over 21 days were obtained for a negative control/vehicle group, and two treatment groups using cisplatin and pembrolizumab (Keytruda), respectively, against the MDA-MB-231 PDX. Specifically, cisplatin was administered i.v. at a dose of about 2 mg/kg body weight, Q7d×2 (every 7 days, 2 total doses). Pembrolizumab (Keytruda) was administered i.p. at a dose of about 5-10 mg/kg body weight, Q5d×4 (every 5 days, 4 total doses). Vehicle (Saline) was administered i.p., Q5d×4.
At the termination of the growth study, peripheral blood of the experimental mice were collected and assayed for human CD19^+ B cells and human CD4^+ and CD8^+ T-cells.
Tumors were also collected and assayed for human CD4^+ and CD8^+ infiltrating T-cells.

A further experiment concerns breast cancer BR1126 PDX. The experiment is described as follows: Tumor growth of PD-L1+ TNBC BR1126 breast cancer PDX in non-HLA matched Hu-CD34 NSG mice. The class given is in vivo, mouse. The following applies: for tumor growth compared to the vehicle control: growth curves over 21 days, cisplatin i.v. about 2 mg/kg Q7dx3, Keytruda i.p. about 5-10 mg/kg Q5dx4. On the procedure:
Specifically, humanized NSG mice were engrafted with 5×10^6 of non-HLA matched PD-L1-positive breast cancer cell line BR1126 cells per mouse via s.c. inoculation. This can be done with the presence of matrigel. About 56.9% of the BR1126 cells expressed PD-L1.
Tumor growth curves over 21 days were obtained for a negative control/vehicle group, and two treatment groups using cisplatin and pembrolizumab (Keytruda), respectively, against the BR1126 PDX. Specifically, cisplatin was administered i.v. at a dose of about 2 mg/kg body weight, Q7d×3 (every 7 days, 3 total doses). Pembrolizumab (Keytruda) was administered i.p. at a dose of about 5-10 mg/kg body weight, Q5d×4 (every 5 days, 4 total doses). Vehicle (Saline) was administered i.p., Q5d×4.
Tumors from the Keytruda-treated mice were collected at the end of the study and examined for lymphocyte infiltration.

Experiment [4] relates to colon cancer CN1572P5 PDX. The experiment is described as follows: Tumor growth of colon cancer CN1572P5 PDX in non-HLA matched Hu-CD34 NSG mice. The class given is in vivo, mouse. As to conditions: tumor growth curves over 21 days; 5-FU i.v. about 20 mg/kg Q7dx2; Avastin i.p. about 10 mg/kg twice a week, 5 doses. As to the method:
To test whether the subject Hu-CD34 NSG™ mice with non-HLA matched PDX can be used to evaluate drug efficacy against the PDX, using clinically relevant standard-of-care (SOC) treatments, tumor growth curves over 21 days were obtained for a negative control/vehicle group, and two treatment groups using 5-FU and Avastin, respectively, against the colon cancer CN1572P5 PDX. Specifically, 5-FU was administered i.v. at a dose of about 20 mg/kg body weight, Q7d×2 (every 7 days, 2 total doses). Avastin was administered i.p. at a dose of about 10 mg/kg body weight, twice a week, 5 total doses. Vehicle (D5W) was administered i.v., Q7d×3.

The test system of the next experiment is lung cancer LG1306 PDX. The experiment is described as follows: Tumor growth of PD-L1+ LG1306 lung cancer PDX in non-HLA matched Hu-CD34 NSG mice. The class given is in vivo, mouse. On the procedure: Specifically, humanized NSG mice were engrafted with 5×10^6 of non-HLA matched PD-L1-positive PDX lung cancer cell line LG1306 per mouse. About 89.1% of the LG1306 cells expressed PD-L1.
Tumor growth curves over 24 days were obtained for a negative control/vehicle group, and two treatment groups using pembrolizumab (Keytruda), with or without the anti-mitotic chemotherapeutic agent Decotaxol, against the LG1306 PDX. Specifically, Decetaxol, when present, was administered i.v. at a dose of about 10 mg/kg body weight, Q7d×4 (every 7 days, 4 total doses). Pembrolizumab (Keytruda) was administered i.p. at a dose of about 5 mg/kg body weight, Q5d×6 (every 5 days, 6 total doses). Vehicle (Saline) was administered i.p., Q5d×6.

[5] abbreviates: Keytruda i.p. about 5-10 mg/kg Q5dx4.

“ipilimumab: anti-CTLA4 agent; FDA-approved CTLA-4 inhibitor for treating melanoma”: the “presence of CD45+CD8+ infiltrating T lymphocytes in PDX tumor samples” value in experiment [1] is “strong presence”.
On to “nivolumab: fully human IgG4 monoclonal antibody against PD-1”, for which the clinical response result in experiment [2] is listed as “complete or partial responses”.
On to `N.N.[Cl][Pt][Cl]` [Cisplatin, cisplatin], for which the “tumor growth of MDA-MB-231 tumors” value in experiment [3] (setting [5]) was “only marginally reduced the growth rate”. The “tumor growth compared to the vehicle control” value in the experiment with breast cancer BR1126 PDX was “significantly reduced tumor growth”.
Regarding `O=c1[nH]cc(F)c(=O)[nH]1` [5-FU], the “efficacy against the non-HLA matched colon cancer PDX (tumor volume)” value in experiment [4] is given as “effective”.
Still for that read-out and setting: for “Avastin: clinically relevant standard-of-care (SOC) anti-cancer drug” the value was “effective”.
For the compound “Keytruda: anti-PD-1 antibody drug; highly selective, humanized IgG4-kappa monoclonal antibody against PD-1”, in experiment [3] (setting [5]), the “time after start of treatment to significant tumor growth delay” value is recorded as ≤ 2 weeks and the “tumor growth of MDA-MB-231 tumors” value is recorded as “delayed tumor growth significantly”. Also, the “human T and B cells in peripheral blood and infiltrating T cells (TILs) in tumors versus other treatment groups” value in experiment [3] (at termination of the growth study) is given as “absence of additional TILs”. The “tumor growth compared to the vehicle control” value in the experiment on breast cancer BR1126 PDX was “significantly reduced tumor growth”. For the same compound, in the experiment with breast cancer BR1126 PDX (tumors collected at the end of the study), the “tumor lymphocyte infiltration compared to the vehicle treated mice” value is “did not increase tumor infiltration”. Moreover, the “presence of CD45+CD8+ infiltrating T lymphocytes in PDX tumor samples” value in experiment [1] is recorded as “strong presence”. The mice not responding entry in the experiment on lung cancer LG1306 PDX (Keytruda alone) is “one of 10”. The “tumor growth of LG1306 PDX compared to vehicle-treated controls” value with lung cancer LG1306 PDX (growth curves over 24 days, Keytruda i.p. about 5 mg/kg Q5dx6, Docetaxel i.v. about 10 mg/kg Q7dx4, all mice) was “reduced growth; also recorded: effective”. The “tumor growth, non-responding mouse taken out of the calculations” value in the experiment with lung cancer LG1306 PDX (one Keytruda non-responder excluded) is “significant decrease in tumor growth”.
